Assay results as given in article PMC7024211, “Antifouling Napyradiomycins from Marine-Derived Actinomycetes Streptomyces aculeolatus” (Marine Drugs, 2020).

Columns and labels:
Scenedesmus quadricauda = settings: experimental data ref Tisler and Zagorc-Koncan, 2003; cited from earlier work
Oral rat/rabit = settings: ref Acros Organics safety data sheet; cited from earlier work
[1] = cited from earlier work
Daphnia magna [2] = settings: experimental data ref Tisler and Zagorc-Koncan, 2003; cited from earlier work
Orcorhynchus mykiss = settings: experimental data ref Tisler and Zagorc-Koncan, 2003; cited from earlier work
Daphnia magna [3] = settings: experimental data ref Tisler and Zagorc-Koncan, 2003; cited from earlier work; remark: listed apart in the source
C. marina [4] = test: Biofilm inhibition assay (crystal violet); format: cell-based, Cobetia marina; settings: CuSO4 5 μM reference
Procedure: (§1) In a 96-well plate, biofilm grown cultures of M. hydrocarbonoclasticus and C. marina were incubated with napyradiomycins (1–12) at a concentration of 31.25 µg/mL. After discarding the media, biofilm inhibition was determined from OD600 measurements of crystal violet stained cells resuspended from the plate bottom with acetic acid.
(§2) Five marine bacterial species were used as models to assess antimicrofouling activity. The biofilm-forming marine bacteria Marinobacter hydrocarbonoclasticus DSM 8798 (ATCC 49840), Cobetia marina DSM 4741, Phaeobacter inhibens DSM 17,395, and Pseusooceanicola batsensis DSM 15,984 were obtained from DSMZ (Leibniz Institute DSMZ—German collection of Microorganisms and Cell Cultures) and Micrococcus luteus. Cultures were routinely grown in liquid marine broth (Carl Roth GmbH, Karlsruhe, Germany) with agitation (180 rpm) or on agar-supplemented marine broth, at 28 °C (M. hydrocarbonoclasticus and C. marina) or 30 °C (P. inhibens and P. batsensis). M. luteus was maintained in Brain Heart Infusion broth (BHI, Becton Dickinson, GmbH, Heidelberg, Germany) with agitation (180 rpm) or on agar-supplemented BHI, at 37 °C.
(§3) The antibiofilm activity of napyradiomycins (1–12) against the five marine bacterial species was assessed in 96-well polystyrene flat bottom microplates (Nunclon Delta Surface, Thermo Scientific, Roskilde, Denmark) as previously reported. For initial screening, bacterial overnight cultures were diluted to an optical density (OD600nm) value of 0.2 and incubated statically at 28 °C (M. hydrocarbonoclasticus, C. marina), 30 °C (P. inhibens, P. batsensis) or 37 °C (M. luteus) in the 96-well microplate in the presence or absence of 31.25 µg/mL of napyradiomycins, solubilized in DMSO. After 24 h (M. hydrocarbonoclasticus, C. marina) or 48 h (P. batsensis, P. inhibens, M. luteus) incubation, the OD600nm was determined. The planktonic cells and media were discarded, and the wells were washed twice with deionized water. The biofilm was fixed for 1 h at 60 °C and stained with crystal violet 0.06% for 10 min. The dye was discarded, and the wells were again washed twice with deionized water. The stained biofilm was solubilized with 30% acetic acid and the OD600nm was determined. […] The percentage of biofilm inhibition was calculated as the amount of biofilm relative to that of the bacterial species without added compounds (with the same amount of DMSO added). CuSO4 (5 μM), a potent antifouling agent used in antifouling paints, was used as reference.
(§4) All assays were performed in triplicate, and results are representative of the average and standard error of the mean (SEM). Statistical analysis was performed in GraphPad Prism 8.0.2, using one-way ANOVA followed by a Dunnett’s multiple comparisons test against the control (species grown with the same amount of DMSO added).

M. luteus [5] = test: Biofilm inhibition assay (crystal violet); format: cell-based, Micrococcus luteus; settings: CuSO4 5 μM reference
Procedure: as §1, §2, §3, §4

M. luteus [6] = test: Bacterial growth inhibition assay (OD600nm); format: cell-based, Micrococcus luteus; settings: CuSO4 5 μM reference
From the text: as §2
(§5) The antibacterial activity of the napyradiomycins (1–12) was assessed in 96-well polystyrene flat bottom microplates (Nunclon Delta Surface, Thermo Scientific, Roskilde, Denmark) following previously reported procedures. […] After 24 h (M. hydrocarbonoclasticus, C. marina) or 48 h (P. batsensis, P. inhibens, M. luteus) incubation, the OD600nm was determined (Molecular Devices, Spectra Max 190). […] The percentage of growth inhibition was calculated as the amount of growth relative to that of the bacterial species without added compounds (with the same amount of DMSO added). CuSO4 (5 μM), a potent antifouling agent used in antifouling paints, was used as reference.
as §4, with “8.0.2 (San Diego, CA, USA),” for “8.0.2,”

P. inhibens [7] = test: Bacterial growth inhibition assay (OD600nm); format: cell-based, Phaeobacter inhibens; settings: CuSO4 5 μM reference
Procedure: (§6) As a first screening approach, liquid cultures of M. hydrocarbonoclasticus, and C. marina in a 96-well format were analyzed for bacterial growth inhibition by percent decrease in OD600 after incubation with napyradiomycins (1–12) at 31.25 µg/mL.
Five marine bacterial species were used as models to assess antimicrofouling activity. The biofilm-forming marine bacteria Marinobacter hydrocarbonoclasticus DSM 8798 (ATCC 49840), Cobetia marina DSM 4741, Phaeobacter inhibens DSM 17,395, and Pseusooceanicola batsensis DSM 15,984 were obtained from DSMZ (Leibniz Institute DSMZ—German collection of Microorganisms and Cell Cultures) and Micrococcus luteus. […]
as §5, with “CuSO4 (5 μM), a potent antifouling agent used in antifouling paints, was used as reference.” left out

M. hydrocarbonoclasticus [8] = test: Bacterial growth inhibition assay (OD600nm); format: cell-based, Marinobacter hydrocarbonoclasticus; settings: CuSO4 5 μM reference
Procedure: as §6, §2
(§7) The antibacterial activity of the napyradiomycins (1–12) was assessed in 96-well polystyrene flat bottom microplates (Nunclon Delta Surface, Thermo Scientific, Roskilde, Denmark) following previously reported procedures. For initial screening, bacterial overnight cultures were diluted to an optical density (OD600nm) of 0.2 and incubated statically at 28 °C (M. hydrocarbonoclasticus, C. marina), 30 °C (P. inhibens, P. batsensis) or 37 °C (M. luteus) in a 96-well microplate in the presence or absence of 31.25 µg/mL of the napyradiomycins, solubilized in DMSO. After 24 h (M. hydrocarbonoclasticus, C. marina) or 48 h (P. batsensis, P. inhibens, M. luteus) incubation, the OD600nm was determined (Molecular Devices, Spectra Max 190). […] The percentage of growth inhibition was calculated as the amount of growth relative to that of the bacterial species without added compounds (with the same amount of DMSO added). CuSO4 (5 μM), a potent antifouling agent used in antifouling paints, was used as reference.
as §4, with “8.0.2 (San Diego, CA, USA),” for “8.0.2,”

M. hydrocarbonoclasticus [9] = test: Biofilm inhibition assay (crystal violet); format: cell-based, Marinobacter hydrocarbonoclasticus; settings: CuSO4 5 μM reference
Procedure: as §1, §2, §3, §4

P. batsensis [10] = test: Biofilm inhibition assay (crystal violet); format: cell-based, Pseudooceanicola batsensis; settings: CuSO4 5 μM reference
Procedure: as §1, §2, §3, §4

P. inhibens [11] = test: Biofilm inhibition assay (crystal violet); format: cell-based, Phaeobacter inhibens; settings: CuSO4 5 μM reference
Procedure: as §1, §2, §3
All assays were performed in triplicate, and results are representative of the average and standard error of the mean (SEM). […]

P. batsensis [12] = test: Bacterial growth inhibition assay (OD600nm); format: cell-based, Pseudooceanicola batsensis; settings: CuSO4 5 μM reference
Procedure: as §6, §2, §7
as §4, with “8.0.2 (San Diego, CA, USA),” for “8.0.2,”

C. marina [13] = test: Bacterial growth inhibition assay (OD600nm); format: cell-based, Cobetia marina; settings: CuSO4 5 μM reference
From the text: as §2, §5
as §4, with “8.0.2 (San Diego, CA, USA),” for “8.0.2,”

SMILES | Aquatic toxicity Alga Scenedesmus quadricauda 72 hour IC50 (Scenedesmus quadricauda) [mg/L] | Acute toxicity Oral rat/rabit LD50 (Oral rat/rabit) [mg/kg] | ATE category [1] | Chronic toxicity Daphnia magna 21 day NOEC (Daphnia magna [2]) [mg/L] | Aquatic toxicity Fish Orcorhynchus mykiss 96 hour LC50 (Orcorhynchus mykiss) [mg/L] | Aquatic toxicity Daphnia magna EC50 48 hour (Daphnia magna [3]) [mg/L] | biofilm inhibition C. marina (C. marina [4]) | biofilm inhibition M. luteus (M. luteus [5]) | growth inhibition M. luteus (M. luteus [6]) | % growth inhibition P. inhibens (P. inhibens [7]) [%] | % growth inhibition M. hydrocarbonoclasticus (M. hydrocarbonoclasticus [8]) [%] | biofilm inhibition M. hydrocarbonoclasticus (M. hydrocarbonoclasticus [9]) | % biofilm inhibition P. batsensis (P. batsensis [10]) [%] | % biofilm inhibition P. inhibens (P. inhibens [11]) [%] | % growth inhibition P. batsensis (P. batsensis [12]) [%] | growth inhibition C. marina (C. marina [13])
[As] [Arsenic] | 34.7 | 12 | 2 (category 2, 5 < ATE ≤ 50 mg/Kg) | 1.85 | 15.3 | 2.5 | – | – | – | – | – | – | – | – | – | –
[Cu] [Copper] | 0.18 | 140 | 3 (category 3, 50 < ATE ≤ 300 mg/Kg) | 0.015 | 0.48 | 0.030 | – | – | – | – | – | – | – | – | – | –
O=S(=O)([O-])[O-].[Cu+2] [CuSO4, reference compound] | – | – | – | – | – | – | not inhibited | not inhibited | not inhibited | 66.2 ± 5.6 | 35.8 ± 0.8 | not inhibited | 41.4 ± 0.9 | 12.9 ± 6.4 | 44.8 ± 6.3 | not inhibited
